Assay results published in patent US20090170847A1, “Imidazopyridine Derivatives Inhibiting Protein Kinase Activity, Method for the Preparation Thereof and Pharmaceutical Composition Containing Same” (priority 2006, published 2009).

What was measured:
Format in all cases: biochemical
ERK-1 = biological target: T1, ERK-1 (Homo sapiens, UniProt P27361); assay: ERK-1 enzyme inhibition (MBP, 32P-ATP); conditions: ERK-1, 100 μM ATP
T1 construct: purchased Upstate
Procedure: (§1) The test solution prepared above by dissolving a test compound in DMSO was added to the reaction solution in an amount of less than 5% based on the total reaction solution to analyze the capacity for enzyme inhibitory activity. The cpm value obtained when the test compounds was present relative to the cpm value in the absence of the test compound was represented by percentage, and IC50 (μM) was determined as the concentration of the test compound required to inhibit the enzyme activity by 50% relatively to the control solution.
(§2) The compounds prepared in the Examples were dissolved in dimethylsulfoxide (DMSO) at a concentration of 12.5 mM to prepare test compounds and enzyme reaction was conducted in a buffer solution containing 50 mM of tris-HCl (pH 7.5), 10 mM of MgCl2, 1 mM of EGTA, 1 mM of EDTA and 1 mM of DTT. 0.33 mg/ml of MBP (Upstate), 100 μM of ATP and 0.25 μCi of ^32P-ATP were added to the buffer solution as substrates. 5 nM of recombinant Erk-1 (Upstate) was added the resulting mixture, and the mixture was reacted at 30° C. for 1 hour. The reaction was terminated by adding 5 μl of 5% phosphoric acid solution to 25 μl of the reaction mixture. 15 μl of the resulting solution was dropped on whatman p81 filter paper, which was then washed in 0.5% phosphoric acid solution for 10 mins. After repeating the washing 3 times, the filter paper was dried and cpm thereof was measured by a liquid scintillation counter (Packard, USA). Inhibitory capacities of the test compounds for the enzyme activity were assessed according to the same method as in GSK-3β analysis, and IC50 value was calculated.

CDK-2/cycline A = biological target: T2, CDK-2/cycline A (Homo sapiens, UniProt P24941); assay: CDK-2 enzyme inhibition (histone H1, 32P-ATP)
T2 construct: purchased Upstate
Procedure: as §2, with “0.33” for “The compounds prepared in the Examples were dissolved in dimethylsulfoxide (DMSO) at a concentration of 12.5 mM to prepare test compounds and enzyme reaction was conducted in a buffer solution containing 50 mM of tris-HCl (pH 7.5), 10 mM of MgCl2, 1 mM of EGTA, 1 mM of EDTA and 1 mM of DTT. 0.33”
The procedure of ERK-1 analysis was repeated to assess inhibitory capacities of the test compounds for the enzyme activity, except for using 2.5 μg of histone H1 (Upstate) and 100 nM of recombinant CDK-2/cycline A (Upstate).

human GSK-3β = human GSK-3β (Homo sapiens, UniProt P49841); assay: GSK-3β enzyme inhibition (32P-ATP, phospho-CREB peptide, filter paper); conditions: 100 μM ATP, 30° C., 1 hour
Sequence of human GSK-3β (P49841 whole entry): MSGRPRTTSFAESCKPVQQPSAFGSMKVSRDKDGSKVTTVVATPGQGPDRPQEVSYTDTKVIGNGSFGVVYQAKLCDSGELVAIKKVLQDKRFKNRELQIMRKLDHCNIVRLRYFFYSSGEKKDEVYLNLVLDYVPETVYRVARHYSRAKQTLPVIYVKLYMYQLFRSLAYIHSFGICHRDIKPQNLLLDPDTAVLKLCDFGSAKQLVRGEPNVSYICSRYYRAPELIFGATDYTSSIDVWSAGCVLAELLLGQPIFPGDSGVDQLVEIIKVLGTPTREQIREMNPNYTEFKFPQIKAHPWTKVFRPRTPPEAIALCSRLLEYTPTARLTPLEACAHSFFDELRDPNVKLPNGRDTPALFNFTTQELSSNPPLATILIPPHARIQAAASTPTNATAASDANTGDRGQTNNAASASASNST
Procedure: GSK-3β was prepared by a gene recombination method.
First, primers corresponding to 5′-end and 3′-end of polynucleotide encoding human GSK-3β were designed and synthesized from nucleotide sequence of human GSK-3β (GenBank Reg. No. L33801). Then, the primers were amplified by PCR (polymerase chain reaction) in which a human DNA sequence was employed as a template and treated with restriction enzyme BamH1/XhoI. The resulting gene fragments were inserted into the corresponding identical restriction sites of pGex vector (GE Healthcare Life Science) to prepare an expression vector for transformation of E. coli BL21 (DE3) strain (Invitrogen). The transformed E. coli strain was inoculated to LB medium (1% Bacto tryptone, 0.5% yeast extract, 1% sodium chloride) and cultured until the optical density of the bacterial cells was about 0.5 at 600 nm and 37° C. Then, IPTG (isopropyl-β-D-thiogalactoside) was added thereto to a final concentration to 0.5 mM at 18° C. 16 hours after IPTG addition, the cells were subjected to centrifugation at 10,000×g for 10 mins and cell precipitates were collected. The cell precipitates were suspended in a buffer solution (30 mM tris-HCl (pH 7.5), 100 mM NaCl, 5% glycerol, 2 mM DTT) and the cells were smashed in an ice bath using a Sonic Dismembrator (Fisher, USA). The resulting solution was centrifuged at 16,000 rpm for 30 mins.
The supernatant obtained above was introduced to a pre-equilibrated GST column (Pharmacia, USA) and eluted by 5 mM glutachione. The effuent was subjected to SDS-PAGE and GSK-3β protein was collected. GST protein was cutt using thrombin. The GSK-3β protein thus obtained was diluted with a buffer solution (20 mM HEPES (pH 7.5), 5% glycerol, 2 mM DTT) until the concentration of NaCl reached 50 mM. The diluted solution was introduced to Mono S column (Pharmacia, USA) equilibrated with the above buffer solution and eluted with a aqueous NaCl while changing the concentration from 0 to 1 M NaCl, and GSK-3β protein was collected by a electrophoresis. The purified protein was used in the analysis for the activity for enzyme activity.
The enzyme reaction was conducted in a buffer solution (50 mM of tris-HCl (pH 7.5), 10 mM of MgCl2, 1 mM of EGTA, 1 mM of EDTA and 1 mM of DTT). 100 μM of phosho-CREB peptide (NEB, USA), 100 μM of ATP and 1 μCi of ^32P-ATP were added to the buffer solution as substrates. And then 100 nM of recombinant GSK-3β was added thereto and the mixture was reacted at 30° C. for 1 hour. The reaction was terminated by the addition of 5 μl of 5% phosphoric acid solution to 25 μl of the reaction mixture. The resulting solution was subjected to centrifugation at 15,000 for 10 mins and 20 μl of the supernatant thus obtained was dropped on whatman p81 filter paper. The filter paper was washed in 0.5% phosphoric acid solution for 10 mins. After repeating the washing 3 times, the filter paper was dried and its cpm (counter per mins) was assessed.
The test solution prepared above by dissolving a test compound in DMSO was added to the reaction solution in an amount of less than 5% based on the total reaction solution to analyze the capacity for enzyme inhibitory activity.

JNK-1 = biological target: T3, JNK-1 (Homo sapiens, UniProt P45983); assay: JNK-1 enzyme inhibition (GST-ATF2, 32P-ATP)
T3 construct: purchased Upstate
T3 sequence (P45983 whole entry, species assumed): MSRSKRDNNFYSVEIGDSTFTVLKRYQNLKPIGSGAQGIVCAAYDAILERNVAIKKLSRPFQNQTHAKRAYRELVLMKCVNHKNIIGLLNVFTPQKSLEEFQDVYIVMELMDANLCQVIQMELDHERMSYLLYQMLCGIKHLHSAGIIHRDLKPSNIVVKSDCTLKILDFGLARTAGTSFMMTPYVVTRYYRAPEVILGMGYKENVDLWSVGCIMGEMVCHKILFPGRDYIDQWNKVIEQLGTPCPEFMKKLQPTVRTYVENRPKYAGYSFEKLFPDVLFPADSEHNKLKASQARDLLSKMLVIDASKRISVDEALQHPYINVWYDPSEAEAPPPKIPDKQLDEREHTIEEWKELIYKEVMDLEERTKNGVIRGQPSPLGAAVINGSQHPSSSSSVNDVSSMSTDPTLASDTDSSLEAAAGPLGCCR

[1] = biological target: T4, p38 Mitogen-activated protein kinase (MAPK) (Homo sapiens, UniProt Q16539); assay: p38 MAPK enzyme inhibition (histone H1, 32P-ATP); conditions: p38 MAPK (recombinant p38a)
T4 construct: purchased Upstate
T4 sequence (Q16539 whole entry): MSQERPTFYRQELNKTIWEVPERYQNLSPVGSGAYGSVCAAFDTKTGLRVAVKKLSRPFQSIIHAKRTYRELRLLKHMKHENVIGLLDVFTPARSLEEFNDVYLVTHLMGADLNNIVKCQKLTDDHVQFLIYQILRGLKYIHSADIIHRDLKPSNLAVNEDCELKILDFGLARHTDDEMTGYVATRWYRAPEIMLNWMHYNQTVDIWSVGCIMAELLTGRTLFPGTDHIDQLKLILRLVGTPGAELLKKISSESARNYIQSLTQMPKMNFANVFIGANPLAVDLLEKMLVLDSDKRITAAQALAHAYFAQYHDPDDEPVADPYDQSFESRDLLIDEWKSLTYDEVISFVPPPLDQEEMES

KDR = biological target: T5, KDR (Homo sapiens, UniProt P35968); assay: KDR enzyme inhibition (Biotin-polyE4Y, alphascreen); conditions: 0.1 μM ATP
T5 construct: purchased Upstate
T5 sequence (P35968 20-1356, species assumed): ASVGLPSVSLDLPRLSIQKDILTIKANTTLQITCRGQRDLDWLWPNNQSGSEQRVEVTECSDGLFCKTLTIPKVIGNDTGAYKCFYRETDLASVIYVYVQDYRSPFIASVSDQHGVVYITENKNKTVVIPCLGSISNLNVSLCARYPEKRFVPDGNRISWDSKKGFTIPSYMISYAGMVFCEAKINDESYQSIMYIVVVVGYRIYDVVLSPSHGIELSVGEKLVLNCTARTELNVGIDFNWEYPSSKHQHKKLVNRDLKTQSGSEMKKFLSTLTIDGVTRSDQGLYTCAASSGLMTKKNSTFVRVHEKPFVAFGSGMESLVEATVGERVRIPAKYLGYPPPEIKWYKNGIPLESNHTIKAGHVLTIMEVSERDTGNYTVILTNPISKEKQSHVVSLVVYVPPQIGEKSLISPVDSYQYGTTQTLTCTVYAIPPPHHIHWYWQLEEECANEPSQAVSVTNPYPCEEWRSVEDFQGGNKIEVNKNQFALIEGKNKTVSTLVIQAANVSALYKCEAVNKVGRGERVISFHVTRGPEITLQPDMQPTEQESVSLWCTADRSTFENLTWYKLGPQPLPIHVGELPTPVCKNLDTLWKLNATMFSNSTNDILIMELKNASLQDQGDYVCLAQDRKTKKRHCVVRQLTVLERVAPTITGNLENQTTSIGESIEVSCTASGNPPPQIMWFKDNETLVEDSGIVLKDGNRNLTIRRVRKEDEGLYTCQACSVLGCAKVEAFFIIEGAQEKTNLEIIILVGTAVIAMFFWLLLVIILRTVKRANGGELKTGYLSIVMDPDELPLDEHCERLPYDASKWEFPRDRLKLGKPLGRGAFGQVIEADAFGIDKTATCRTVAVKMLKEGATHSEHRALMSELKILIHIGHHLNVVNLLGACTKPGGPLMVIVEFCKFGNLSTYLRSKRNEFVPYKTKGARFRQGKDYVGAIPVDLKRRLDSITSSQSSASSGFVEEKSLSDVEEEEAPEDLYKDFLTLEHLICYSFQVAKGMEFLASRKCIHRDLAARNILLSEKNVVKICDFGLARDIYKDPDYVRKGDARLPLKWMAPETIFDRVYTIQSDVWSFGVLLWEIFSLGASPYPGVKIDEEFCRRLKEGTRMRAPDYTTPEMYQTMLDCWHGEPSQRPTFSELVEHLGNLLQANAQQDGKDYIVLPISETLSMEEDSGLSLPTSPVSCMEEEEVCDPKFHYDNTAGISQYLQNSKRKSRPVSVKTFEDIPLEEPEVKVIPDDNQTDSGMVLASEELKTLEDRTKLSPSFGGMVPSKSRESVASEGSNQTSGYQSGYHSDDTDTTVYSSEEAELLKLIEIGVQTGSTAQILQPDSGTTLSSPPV
Procedure: as §1
The compounds prepared in the Examples were dissolved in dimethylsulfoxide (DMSO) at a concentration of 12.5 mM to prepare test solution, and enzyme reaction was conducted in a buffer solution containing 50 mM tris-HCl (pH 7.5), 5 mM MgCl2, 1 mM MnCl2, 0.01% tween-20 and 2 mM of DTT. 1 nM of Biotin-polyE4Y (Packard) and 0.1 μM of ATP were added to the buffer solution as substrates. 2 nM of recombinant KDR (Upstate) was added the resulting mixture and reaction was carried out at 30° C. for 1 hour. 10 μl of a diluted solution prepared by diluting alphascreen phosphotyrosine (T-Tyr-100, Packard) beads with a solution containing 6.25 mM of HEPES (pH 7.4), 250 mM of NaCl, 100 Mm EDTA, and 0.25% BSA was added to 15 μl of the KDR reaction solution. After a reaction at a room temperature for 1 hour, alphascreen signal was measured by a fusion a-FP (Packard). Inhibitory capacities of the test compounds for the enzyme activity were assessed according to the same method as in GSK-3β analysis, and IC50 value was calculated.

T1 sequence (P27361 whole entry, species assumed): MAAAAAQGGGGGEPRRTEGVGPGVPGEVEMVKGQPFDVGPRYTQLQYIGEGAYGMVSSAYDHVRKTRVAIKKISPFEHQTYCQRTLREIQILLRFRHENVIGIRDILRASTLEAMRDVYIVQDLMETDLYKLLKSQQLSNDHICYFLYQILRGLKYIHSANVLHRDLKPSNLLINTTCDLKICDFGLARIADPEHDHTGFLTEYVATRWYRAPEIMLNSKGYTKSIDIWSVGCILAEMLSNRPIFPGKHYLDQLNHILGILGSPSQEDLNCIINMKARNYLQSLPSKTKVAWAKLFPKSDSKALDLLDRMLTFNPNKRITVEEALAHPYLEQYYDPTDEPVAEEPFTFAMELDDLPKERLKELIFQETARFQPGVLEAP

IC50 (ERK-1): 25.5 µM | IC50 (CDK-2/cycline A): 0.17 µM | IC50 (human GSK-3β): 0.005 µM | IC50 (JNK-1): 14.5 µM | IC50 [1]: 50 µM | IC50 (KDR): 0.29 µM
SMILES: CCSc1ccncc1NC(=O)c1ccnc2[nH]c(-c3ccc(F)cc3)nc12 [Example 320, 2-(4-fluoro-phenyl)-3H-imidazo[4,5-b]pyridine-7-carboxylic acid(4-ethylsulfanyl-pyridin-3-yl)-amide]
